# Test results from patent US5488037A, “Antithrombotic agents” (Eli Lilly and Company, priority 1994, dated 1996).
# Assays:
# [1] = target: human thrombin (Homo sapiens, UniProt P00734); experiment: Inhibition of the amidase activity of human thrombin (chromogenic substrate, Kass); format: biochemical; conditions: apparent association constant, mean over a range of test compound concentrations; purified human thrombin, substrate N-benzoyl-Phe-Val-Arg-p-nitroanilide, pH 7.4
# Experimental: The assay is carried out by mixing 50 μl buffer (0.03M Tris, 0.15M NaCl, pH 7.4) with 25 μl of human thrombin solution (purified human thrombin, Enzyme Research Laboratories, South Bend, Ind., at 8 NIH units/ml) and 25 μl of test compound in a solvent (50% aqueous methanol (v:v)). Then 150 μl of an aqueous solution of the chromogenic substrate (at 0.25 mg/ml) are added and the rates of hydrolysis of the substrate are measured by monitoring the reactions at 405 nm for the release of p-nitroaniline. Standard curves are constructed by plotting free thrombin concentration against hydrolysis rate. The hydrolysis rates observed with test compounds are then converted to "free thrombin" values in the respective assays by use of the standard curves. The bound thrombin (bound to test compound) is calculated by subtracting the amount of free thrombin observed in each assay from the known initial amount of thrombin used in the assay. The amount of free inhibitor in each assay is calculated by subtracting the number of moles of bound thrombin from the number of moles of added inhibitor (test compound).
# The Kass value is the hypothetical equilibrium constant for the reaction between thrombin and the test compound (I). [drawing 45]
# Kass is calculated for a range of concentrations of test compounds and the mean value reported in units of liter per mole.
# [2] = Index of bioavailability: plasma thrombin time (TT) time course after i.v. bolus and oral treatment of rats; format: in vivo, rat; conditions: dose-adjusted AUC of plasma TT, p.o. (fasted conscious rats) relative to i.v. bolus (anesthetized rats)
# Description: Assays are done in duplicate and averaged.
# Each sample population represents alternating sequential time points.
Structure (SMILES),"Human Thrombin Inhibition Levels, Kass × 10^6 (l/mole) [1]","Index of Bioavailability, Percent Relative Activity [2] [%]"
"Cl.Cl.N=C(N)NCCC[C@@H](C=O)NC(=O)[C@@H]1CCCN1C(=O)C1CCCNC1.O (stereo partly drawn) [Example 5, 3-piperidinocarbonyl-L-Pro-L-Arginine Aldehyde Dihydrochloride Monohydrate]",2 × 10^6 l/mole,–
"Cl.Cl.Cl.N=C(N)NCCC[C@@H](C=O)NC(=O)[C@@H]1CCCN1C(=O)C1CCCCC1N.O (stereo partly drawn) [Example 8, 2-aminocyclohexylcarbonyl-L-Pro-L-Arginine Aldehyde Trihydrochloride Monohydrate]",39 × 10^6 l/mole,15
"Cl.Cl.N=C(N)NCCC[C@@H](C=O)NC(=O)[C@@H]1CCCN1C(=O)CN1CCCCC1.O [Example 4, 2-(2-Piperidino)acetyl-L-Pro-L-Arginine Aldehyde Dihydrochloride Monohydrate]",1 × 10^6 l/mole,–
"CNCC(Cc1ccccc1)C(=O)N1CCC[C@H]1C(=O)N[C@H](C=O)CCCNC(=N)N.Cl.Cl.O (stereo partly drawn) [Example 3, N-Methyl-3-amino-2-benzylpropionyl-L-Pro-L-Arg Aldehyde Dihydrochloride Monohydrate]",12 × 10^6 l/mole,8
"CNC1CCCCC1C(=O)N1CCC[C@H]1C(=O)N[C@H](C=O)CCCNC(=N)N.Cl.Cl (stereo partly drawn) [Example 7, 2-(N-methyl)aminocyclohexyl-carbonyl-L-Pro-L-Arginine Aldehyde Dihydrochloride]",18.4 × 10^6 l/mole,–
"Cl.Cl.N=C(N)NCCC[C@@H](C=O)NC(=O)[C@@H]1CCCN1C(=O)C1CNC2CCCCC21.O (stereo partly drawn) [Example 6, 3-perhydroindolylcarbonyl-L-Pro-L-Arginine Aldehyde Dihydrochloride Monohydrate]",11 × 10^6 l/mole,–
"CNC(CC(=O)N1CCC[C@H]1C(=O)N[C@H](C=O)CCCNC(=N)N)C1CCCCC1.CNC(CC(=O)N1CCC[C@H]1C(=O)N[C@H](C=O)CCCNC(=N)N)C1CCCCC1.Cl.Cl.Cl.Cl.O (stereo partly drawn) [Example 2, N-methyl-3-amino-3-cyclohexyl propionyl-L-Pro-L-Arg aldehyde dihydrochloride hemihydrate]",85 × 10^6 l/mole,19
"CNC(CC(=O)N1CCC[C@H]1C(=O)N[C@H](C=O)CCCNC(=N)N)c1ccccc1.Cl.Cl.O.O (stereo partly drawn) [Example 1, N-methyl-3-amino-3-phenylpropionyl-L-Prolinyl-L-Arginine Aldehyde Dihydrochloride Dihydrate]",70 × 10^6 l/mole,28
